Laboratory results reported in patent publication EP0665223A1, “Antitumor agent, novel 3(2H)-pyridazinone derivatives and their preparation” (TAKEDA CHEMICAL INDUSTRIES, LTD., priority 1994, dated 1995).

Experiments:
[1] = test system: pancreatic cancer cell strain PC-3; test: Suppressing proliferation of PC-3 cells in vitro (MTT, number of living cells); assay type: cell-based; settings: 96 h, PC-3, F-12K medium, incubated 4 days with test compound
Experimental: (§1) A cell suspension of pancreatic cancer cell AsPC-1 (20000/ml) in RPMI 1640 medium (Flow Laboratories) supplemented with 10% of inactivated fetal calf serum, 1 mM of sodium pyruvate and 25 mM of HEPES [2-{4-(2-hydroxyethyl)-1-piperazinyl}ethanesulfonic acid] was added to 96-well micro-culture plates (50ul/well). The culture plates were incubated at 37°C in a 5% CO₂ incubator. On the following day, the solution of each test compound dissolved in dimethylformamide and diluted (3-fold steps) was added (50 ul/well), which was incubated for further 3 days. The culture broth containing the test compounds was eliminated, and the cells were washed, to which was added a solution of MTT pigment, and the number of living cells was calculated [Tada et al. J. Immunol. Methods, 93 p.157 (1986)]. The number of cells in the control group containing no test compound was assumed to be 100%, and the respective ratios of cell numbers in groups containing the respective test compounds were calculated to thereby determine the concentrations (IC₅₀ value) of the respective test compounds necessary to suppress the number of living cells to 50% of that of the control group.
For the test of pancreatic cancer cell strain PC-3, the same method in the case of AcPC-1 was employed excepting the use of F-12K medium containing 10% inactivated fetal calf serum (Flow Laboratories) and change of the incubation period after adding the test compounds to 4 days, to thereby determine the IC₅₀ value (nm).

[2] = test system: pancreatic cancer cell AsPC-1; test: Suppressing proliferation of pancreatic cancer cell AsPC-1 in vitro (MTT, number of living cells); assay type: cell-based; settings: Homo sapiens, ASPC1, 72 h, AsPC-1, RPMI 1640 medium, incubated 3 days with test compound
Experimental: as §1

[3] = test system: human pancreatic carcinoma cells AsPC-1; test: Suppressing proliferation of pancreatic carcinoma in vivo (AsPC-1 transplanted subcutaneously into nude mice, tumor volume); parameters: species or system Balb/c nude mice; settings: once for two days during 14 days, tumor volume of treated group to control group
Experimental: The human pancreatic carcinoma cells AsPC-1 (3x10⁶cells) were transplanted subcutaneously into Balb/c nude mice (7 week old) at the flank. On 35th day after the transplantation, the tumor size was measured. Five mice (per group) with almost the same tumor size were employed for the experiment. These groups were respectively administered intraperitoneally with No. 1, 2 and 19 of the compounds of this invention dissolved in corn oil, once for two days during 14 days. On the day following the completion of administration, the tumor size was measured, and the tumor volume was calculated by the formula: Tumor volume = major axis x minor axis x minor axis x (1/2) [formula] . The ratio of the tumor volume in the treated group to that in a control group to which corn oil alone was administered was calculated as a proliferation ratio.

[4] = Dosage 16.7 mg/kg intraperitoneally in corn oil

Compound | IC50 [1] [nM] | IC50 [2] [nM] | Proliferation ratio (%) ([3]; Dosage 6.7 mg/kg intraperitoneally in corn oil) | Proliferation ratio (%) [3, 4] [%]
CC(C)(C)c1ccc(CSc2cnn(C(C)(C)C)c(=O)c2Cl)cc1 [Compound 1, 2-t-butyl-4-chloro-5-(4-t-butyl)benzylthio-3(2H)pyridanzine] | < 1.52 | 16 | 56 | 
CC(C)(C)n1ncc(SCc2ccccc2)c(Cl)c1=O [Compound 2, 2-t-butyl-4-chloro-5-benzylthio-3 (2H)pyridazinone] | 120 | 440 |  | 48
CC(C)(C)c1ccc(COc2cnn(C(C)(C)C)c(=O)c2Cl)cc1 [Compound 19, 2-t-butyl-4-chloro-5-(4-t-butyl)benzyloxy-3(2H)pyridazinone] | < 1.52 | 180 |  | 29
CC(C)(C)n1ncc(SCc2ccc(OCc3ccccc3)cc2)c(Cl)c1=O [Compound 74, 5-(4-benzyloxybenzylthio)-2-t-butyl-4-chloro-3(2H)-pyridazinone] | < 1.52 | 29 |  | 
CC(C)(C)n1ncc(OCC(O)c2ccc(-c3ccccc3)cc2)c(Cl)c1=O (stereo not drawn) [Compound 82, 2-t-butyl-4-chloro-5-[2-hydroxy-2-(4-biphenyl)]ethoxy-3(2H)-pyridazinone] | 27 | 480 |  | 
CC(C)(C)n1ncc(OC(CO)c2ccc(-c3ccccc3)cc2)c(Cl)c1=O (stereo not drawn) [Compound 83, 2-t-butyl-4-chloro-5-[2-hydroxy-1-(43-biphenyl)]ethoxy-3(2H)-pyridazinone] | 2 | 73 |  | 
CC(C)(C)n1ncc(SC(CO)c2ccc(-c3ccccc3)cc2)c(Cl)c1=O (stereo not drawn) [Compound 85, 2-t-butyl-4-chloro-5-[2-hydroxy-1-(p-biphenyl)]ethylthio-3(2H)-pyridazinone] | < 1.52 | 12 |  | 
CC(C)(C)OC(=O)Nc1cc(-c2ccc(CSc3cnn(C(C)(C)C)c(=O)c3Cl)cc2)ccn1 [Compound 90, 2-t-butyl-4-chloro-5-[4-[4-(2-t-butoxycarbonylamino)pyridyl]benzylthio]-3(2H)-pyridazinone] | 64 | 270 |  | 
CC(C)(C)OC(=O)Nc1cc(-c2ccc(COc3cnn(C(C)(C)C)c(=O)c3Cl)cc2)ccn1 [Compound 91] | 92 | 560 |  | 
CC(C)(C)n1ncc(SCc2ccc(-c3ccnc(N)c3)cc2)c(Cl)c1=O [Compound 92, 5-[4-[4-(2-amino)pyridyl]benzylthio]-2-t-butyl-4-chloro-3(2H)-pyridazinone] | < 1.52 | 28 |  | 
CC(C)(C)n1ncc(OCc2ccc(-c3ccnc(N)c3)cc2)c(Cl)c1=O [Compound 93, 5-[4-[4-(2-amino)pyridyl]benzyloxy]-2-t-butyl-4-chloro-3(2H)-pyridazinone] | 110 | 770 |  | 
CC(C)(C)n1ncc(SCc2ccc(-c3ncccn3)cc2)c(Cl)c1=O [Compound 96, 2-t-butyl-4-chloro-5-[4-(2-pyrimidyl)]benzylthio-3(2H)-pyridazine] | < 1.52 | 16 |  | 
CC(C)(C)n1ncc(OCc2ccc(-c3ncccn3)cc2)c(Cl)c1=O [Compound 97, 2-t-butyl-4-chloro-5-[4-(2-pyrimidyl)]benzyloxy-3(2H)-pyridazine] | < 1.52 | 280 |  | 
COc1cc(OC)nc(-c2ccc(CSc3cnn(C(C)(C)C)c(=O)c3Cl)cc2)n1 [Compound 98, 2-t-butyl-4-chloro-5-[4-[2-(4,6-dimethoxy)pyrimidyl]]benzylthio-3(2H)-pyridazinone] | 6 | 54 |  | 
COc1cc(OC)nc(-c2ccc(COc3cnn(C(C)(C)C)c(=O)c3Cl)cc2)n1 [Compound 99, 2-t-butyl-4-chloro-5-[4-[2-(4,6-dimethoxy)pyrimidyl]]benzyloxy-3(2H)-pyridazinone] | 52 | 230 |  | 
CC(C)(C)n1ncc(SCc2ccc(-c3csc(N)n3)cc2)c(Cl)c1=O [Compound 102] | 2 | 33 |  | 
CC(C)(C)n1ncc(OCc2ccc(-c3csc(N)n3)cc2)c(Cl)c1=O [Compound 103] | 210 | 250 |  | 
Cc1c(OCc2ccc(-c3ccccn3)cc2)cnn(C(C)(C)C)c1=O [Compound 104, 2-t-butyl-4-methyl-5-[4-(2-pyridyl)]benzyloxy-3(2H)-pyridazinone] | < 1.52 | 85 |  | 
CC(C)(C)n1ncc(SCc2ccc(-c3cc[nH]n3)cc2)c(Cl)c1=O [Compound 111, 2-t-butyl-4-chloro-5-[4-(1H-pyrazol-3-yl)benzylthio]-3(2H)-pyridazinone] | 3 | 550 |  | 
CC(C)(C)n1ncc(SCc2ccc(-c3ccno3)cc2)c(Cl)c1=O [Compound 113, 2-t-butyl-4-chloro-5-[4-(1,2-oxazol-5-yl)benzylthio]-3(2H)-pyridazinone] | < 1.52 | 120 |  | 
CC(C)(C)n1ncc(SCc2ccc(-c3csnn3)cc2)c(Cl)c1=O [Compound 115, 2-t-butyl-4-chloro-5-[4-(1,2,3-thiadiazol-4-yl)benzylthio]-3(2H)-pyridazinone] | < 1.52 | 49 |  | 
CC(C)(C)n1ncc(OCc2ccc(-c3csnn3)cc2)c(Cl)c1=O [Compound 116, 2-t-butyl-4-chloro-5-[4-(1,2,3-thiadiazol-4-yl)benzyloxy]-3(2H)-pyridazinone] | 14 | 370 |  | 
CC(C)(C)n1ncc(SCc2ccc(-c3ncns3)cc2)c(Cl)c1=O [Compound 117, 2-t-butyl-4-chloro-5-[4-(1,2,4-thiadiazol-5-yl)benzylthio]-3(2H)-pyridazinone] | 2 | 100 |  | 
CC(C)(C)n1ncc(SCc2ccc(-c3cnco3)cc2)c(Cl)c1=O [Compound 119, 2-t-butyl-4-chloro-5-[4-(1,3-oxazol-5-yl)benzylthio]-3(2H)-pyridazinone] | < 1.52 | 370 |  | 
